Active and inactive are the calls of the source.
Assays:
[1] = cytotoxicity in HPDE-C7 cells, cell-based, fluorescence, HTS (AID 430); format: functional; settings: Homo sapiens
[2] = cytotoxicity in KRAS-transformed pancreatic duct cells, primary screen, cell-based, fluorescence, HTS (AID 431); format: functional; settings: Homo sapiens;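 further: cell line used: HPDE-C7K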
[3] = molecular target: Luciferin 4-monooxygenase (Photinus pyralis, UniProt P08659); assay: firefly luciferase enzyme inhibitors, dose response, biochemical, luminescence (AID 1891)
[4] = Luminescence Cell-Based Dose Confirmation HTS to Identify Inhibitors of Platelet Dense Granule Release. [Related pubchem assays: 1663 (Primary HTS), 1678 (Summary of Project)]; format: functional
[5] = Fluorescence Cell-Based Dose Response to Identify Inhibitors of Thrombin Receptor-Activating Peptide SFLLRN-Mediated P-Selectin Induction on Platelets. [Related pubchem assays: 1663 (Primary HTS), 1889 (retest at dose ), 1891 (counterscreen), 1678 (Project Summary)]; format: functional
[6] = M. tuberculosis H37Rv growth inhibitors, H37Rv strain (AID 1626); format: functional
Large T antigen = Large T antigen (Simian virus 40, UniProt P03070); format: functional, Betapolyomavirus macacae;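 further: Confirmatory-stage PubChem screen for compounds that inhibit SV40 T antigen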
[7] = molecular target: T1, Replicative DNA helicase DnaB (Mycobacterium tuberculosis, UniProt P9WMR3); assay: DnaB intein splicing inhibitors, dose response, biochemical, cell-free fluorescence (AID 449749); format: functional
T1 sequence (P9WMR3 whole entry): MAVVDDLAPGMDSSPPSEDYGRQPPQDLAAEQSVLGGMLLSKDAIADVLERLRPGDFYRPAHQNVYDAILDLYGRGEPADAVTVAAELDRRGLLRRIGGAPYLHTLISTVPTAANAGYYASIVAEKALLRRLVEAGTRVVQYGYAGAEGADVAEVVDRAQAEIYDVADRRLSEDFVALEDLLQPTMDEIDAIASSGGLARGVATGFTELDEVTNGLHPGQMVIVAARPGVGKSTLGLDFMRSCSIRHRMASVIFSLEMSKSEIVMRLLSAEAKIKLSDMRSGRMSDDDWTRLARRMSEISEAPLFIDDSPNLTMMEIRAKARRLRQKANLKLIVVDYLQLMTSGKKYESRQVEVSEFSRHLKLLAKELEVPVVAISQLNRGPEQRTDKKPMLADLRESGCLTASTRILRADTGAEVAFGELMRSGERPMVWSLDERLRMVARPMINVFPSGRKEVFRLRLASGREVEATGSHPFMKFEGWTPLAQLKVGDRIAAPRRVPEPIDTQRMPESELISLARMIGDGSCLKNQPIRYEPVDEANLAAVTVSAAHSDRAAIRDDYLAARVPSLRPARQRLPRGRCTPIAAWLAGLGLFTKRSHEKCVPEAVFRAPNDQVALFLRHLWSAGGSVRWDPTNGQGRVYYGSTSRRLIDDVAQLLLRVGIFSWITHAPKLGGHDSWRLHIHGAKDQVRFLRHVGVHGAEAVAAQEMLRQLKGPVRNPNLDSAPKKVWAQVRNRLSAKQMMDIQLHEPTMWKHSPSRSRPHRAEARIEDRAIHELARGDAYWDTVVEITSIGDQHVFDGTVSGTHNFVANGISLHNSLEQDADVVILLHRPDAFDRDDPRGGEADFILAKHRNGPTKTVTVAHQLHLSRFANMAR

Protein RecA = molecular target: T2, Protein RecA (Mycobacterium tuberculosis, UniProt P9WHJ3); assay: Fluorescence Cell-Free Homogeneous Dose Retest to Identify Inhibitors of RecA-Intein Splicing Activity. [Related pubchem assays (depositor defined):AID2097, AID2223, AID489010, AID492950]; format: functional
T2 sequence (P9WHJ3 whole entry): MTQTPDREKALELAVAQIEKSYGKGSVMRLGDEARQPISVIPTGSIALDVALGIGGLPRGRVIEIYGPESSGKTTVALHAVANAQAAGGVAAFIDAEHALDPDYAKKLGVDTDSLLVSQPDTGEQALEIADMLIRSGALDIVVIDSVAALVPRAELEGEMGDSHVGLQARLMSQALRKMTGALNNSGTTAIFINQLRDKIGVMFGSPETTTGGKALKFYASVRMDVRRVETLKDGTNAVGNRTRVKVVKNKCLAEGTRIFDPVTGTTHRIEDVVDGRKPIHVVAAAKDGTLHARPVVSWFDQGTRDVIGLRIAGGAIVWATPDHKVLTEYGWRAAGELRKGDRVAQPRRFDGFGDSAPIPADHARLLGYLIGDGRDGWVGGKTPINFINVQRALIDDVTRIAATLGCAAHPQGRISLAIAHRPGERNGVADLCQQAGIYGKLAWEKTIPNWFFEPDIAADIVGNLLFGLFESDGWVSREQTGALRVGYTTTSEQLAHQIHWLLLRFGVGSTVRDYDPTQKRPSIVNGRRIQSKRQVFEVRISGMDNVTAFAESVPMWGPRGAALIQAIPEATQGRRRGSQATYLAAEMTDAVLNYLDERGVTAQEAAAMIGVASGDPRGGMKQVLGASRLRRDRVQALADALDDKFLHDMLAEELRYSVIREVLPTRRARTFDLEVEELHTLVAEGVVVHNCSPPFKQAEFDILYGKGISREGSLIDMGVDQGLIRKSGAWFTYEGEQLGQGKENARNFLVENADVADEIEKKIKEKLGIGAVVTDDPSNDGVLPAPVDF

[8] = P. falciparum 3D7-ScDHODH growth inhibitors, dose response, SYBR Green, dry powder samples (AID 1159570); format: functional, cell-based;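 further: parasite growth measured after 72 hours of compound exposure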
[9] = HepG2 cell cytotoxicity, dose response, cytotoxicity control, plate reader, dry powder samples (AID 1159569); format: functional, cell-based;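 further: inhibitor potency with signal falling toward the positive control level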
[10] = P. falciparum Dd2 growth inhibitors, dose response, SYBR Green, dry powder samples, set 9 (AID 1159568); format: functional, cell-based
[11] = P. falciparum Dd2 growth inhibitors, dose response, SYBR Green, cherry-picked samples (AID 1159567); format: functional, cell-based
[12] = P. falciparum Dd2 growth inhibitors, dose response, SYBR Green, dry powder samples (AID 1159566); format: functional, cell-based;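 further: potency for growth inhibition with lower SYBR green DNA signal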
[13] = Plasmodium falciparum Dd2 Sybr green parasite growth Measured in Cell-Based and Microorganism Combination System Using Plate Reader - 2153-01_Inhibitor_Dose_DryPowder_Activity_Set3.; format: functional
[14] = P. falciparum ATP4 D1247Y mutant growth inhibitors, dose response, NITD609-resistant line, SYBR Green, dry powder (AID 1159571); format: functional, cell-based;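 further: parasites synchronized at ring stage by sorbitol before testing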
NADPH oxidase 1 = NADPH oxidase 1 (Homo sapiens, UniProt Q9Y5S8); format: functional, cell-based;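 further: Cell-based assay with luminescence read-out, IC50 derived from inhibitor dose-response curves; intracellular ROS from endogenous NOX1 in intact HT29 colon cancer cells; potency of inhibitors that lower the ROS luminescence signal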
Genome polyprotein = Genome polyprotein (Hepatitis C virus, UniProt Q2Q167); assay: HCV core protein dimerization inhibitors, dose response, biochemical, TR-FRET (AID 2159); set-up: species or system Hepacivirus hominis;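 further: blocks dimerization of HCV core protein measured by TR-FRET between tagged core106 pairs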
[15] = molecular target: DNA dC->dU-editing enzyme APOBEC-3G (Homo sapiens, UniProt Q9HC16); assay: Dose Response confirmation of small molecule APOBEC3G DNA Deaminase Inhibitors via a fluorescence-based single-stranded DNA deaminase assay. [Related pubchem assays (depositor defined):AID493012, AID493028]; format: functional
[16] = HeLa 2N DNA content increase, dose response, cell-based, IC50 (AID 1117349); format: functional
[17] = HeLa 4N DNA content increase, dose response, cell-based, IC50 (AID 1117351); format: functional
[18] = half-maximal inhibitory concentration for glucagon-like peptide-1 release, STC-1 cell line, dose-response (AID 1117345); format: functional, cell-based
[19] = Glucagon-like peptide 1 release potency, NCI-H716 cell line, dose-response, half-maximal inhibitory concentration (AID 1117344); format: functional, cell-based

Sequence of DNA dC->dU-editing enzyme APOBEC-3G (Q9HC16 whole entry): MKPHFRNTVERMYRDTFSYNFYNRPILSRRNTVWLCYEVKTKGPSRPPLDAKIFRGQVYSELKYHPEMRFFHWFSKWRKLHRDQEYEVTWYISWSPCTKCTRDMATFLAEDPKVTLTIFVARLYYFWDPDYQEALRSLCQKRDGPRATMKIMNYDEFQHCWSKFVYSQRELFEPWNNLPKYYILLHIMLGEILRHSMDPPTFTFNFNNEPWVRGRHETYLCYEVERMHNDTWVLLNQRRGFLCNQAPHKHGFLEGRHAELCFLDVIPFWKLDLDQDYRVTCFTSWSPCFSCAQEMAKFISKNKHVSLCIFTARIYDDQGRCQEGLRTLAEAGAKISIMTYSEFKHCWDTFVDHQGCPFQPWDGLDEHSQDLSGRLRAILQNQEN
Sequence of Genome polyprotein (Q2Q167 whole entry): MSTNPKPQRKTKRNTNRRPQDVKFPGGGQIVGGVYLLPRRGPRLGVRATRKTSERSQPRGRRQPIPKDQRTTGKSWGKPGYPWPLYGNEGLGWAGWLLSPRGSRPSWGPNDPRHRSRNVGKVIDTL
Sequence of Luciferin 4-monooxygenase (P08659 whole entry): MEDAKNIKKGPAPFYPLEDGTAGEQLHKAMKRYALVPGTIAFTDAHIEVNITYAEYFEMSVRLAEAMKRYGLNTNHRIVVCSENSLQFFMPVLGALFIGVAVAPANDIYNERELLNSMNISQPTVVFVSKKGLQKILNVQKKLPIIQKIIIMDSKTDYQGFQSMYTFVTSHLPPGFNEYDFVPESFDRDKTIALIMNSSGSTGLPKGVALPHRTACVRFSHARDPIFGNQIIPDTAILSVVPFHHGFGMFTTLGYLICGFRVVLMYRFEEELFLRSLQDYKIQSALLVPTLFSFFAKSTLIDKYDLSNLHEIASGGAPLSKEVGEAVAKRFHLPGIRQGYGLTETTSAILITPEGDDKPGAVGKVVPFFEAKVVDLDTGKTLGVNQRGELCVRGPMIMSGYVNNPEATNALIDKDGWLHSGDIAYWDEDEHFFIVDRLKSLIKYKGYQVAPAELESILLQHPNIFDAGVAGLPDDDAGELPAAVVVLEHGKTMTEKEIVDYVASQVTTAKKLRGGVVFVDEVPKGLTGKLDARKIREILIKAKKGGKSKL
Sequence of Large T antigen (P03070 whole entry): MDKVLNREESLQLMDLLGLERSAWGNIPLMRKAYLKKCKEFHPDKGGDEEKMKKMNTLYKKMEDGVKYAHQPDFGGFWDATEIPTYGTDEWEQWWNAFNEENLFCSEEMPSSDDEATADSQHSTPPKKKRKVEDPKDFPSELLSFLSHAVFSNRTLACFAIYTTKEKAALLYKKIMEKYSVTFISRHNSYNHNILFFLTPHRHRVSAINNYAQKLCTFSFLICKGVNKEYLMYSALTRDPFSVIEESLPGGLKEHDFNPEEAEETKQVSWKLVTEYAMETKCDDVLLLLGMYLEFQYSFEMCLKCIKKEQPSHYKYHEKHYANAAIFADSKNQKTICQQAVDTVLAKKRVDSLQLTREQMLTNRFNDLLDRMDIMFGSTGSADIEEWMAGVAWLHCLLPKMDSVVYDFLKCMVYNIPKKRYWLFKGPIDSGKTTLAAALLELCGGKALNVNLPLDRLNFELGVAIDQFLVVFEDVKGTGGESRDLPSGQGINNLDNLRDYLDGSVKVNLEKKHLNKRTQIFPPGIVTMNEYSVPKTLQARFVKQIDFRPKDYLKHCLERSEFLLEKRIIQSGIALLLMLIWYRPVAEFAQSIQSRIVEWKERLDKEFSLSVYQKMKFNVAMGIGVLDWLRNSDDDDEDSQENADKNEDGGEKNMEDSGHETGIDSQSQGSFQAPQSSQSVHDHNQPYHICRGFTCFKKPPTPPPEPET
Sequence of NADPH oxidase 1 (Q9Y5S8 whole entry): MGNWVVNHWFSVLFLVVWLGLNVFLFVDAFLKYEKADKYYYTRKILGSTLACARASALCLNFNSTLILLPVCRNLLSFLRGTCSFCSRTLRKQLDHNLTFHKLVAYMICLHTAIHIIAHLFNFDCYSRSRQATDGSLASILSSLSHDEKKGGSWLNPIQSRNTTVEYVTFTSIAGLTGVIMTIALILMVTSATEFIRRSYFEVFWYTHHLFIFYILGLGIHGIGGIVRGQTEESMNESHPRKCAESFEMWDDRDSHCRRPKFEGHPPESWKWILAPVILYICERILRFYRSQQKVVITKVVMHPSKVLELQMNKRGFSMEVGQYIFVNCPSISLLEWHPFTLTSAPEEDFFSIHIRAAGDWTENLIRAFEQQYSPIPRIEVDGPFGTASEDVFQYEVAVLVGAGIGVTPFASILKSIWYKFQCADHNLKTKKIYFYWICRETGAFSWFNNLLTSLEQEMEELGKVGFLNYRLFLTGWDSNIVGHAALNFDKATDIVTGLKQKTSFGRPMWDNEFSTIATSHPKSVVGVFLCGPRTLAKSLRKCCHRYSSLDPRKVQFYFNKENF

Structure (SMILES): O=S(=O)(CC(CN1CCCC1)N1CCCC1)c1ccc2ccccc2c1 (stereo not given)
- EC50 [1]: 2.04 µM (active)
- EC50 [2]: 2.38 µM (active)

Structure (SMILES): COc1ccc(-n2nnc3c(SCC(=O)Nc4ccc5c(c4)OCCO5)ncnc32)cc1
- EC50 [1]: 7.96 µM (active)
- EC50 [2]: 8.32 µM (active)

Structure (SMILES): COC(=O)CS(=O)(=O)c1ccc2c(c1)CC(=O)N2
- EC50 [3]: > 112 µM (not active)
- EC50 [4]: 1.45 µM (active)
- EC50 [5]: < 1 µM (active)

Structure (SMILES): Oc1cnn(-c2ccccc2)c1
- IC50 [6]: > 100 µM (active)
- IC50 (Large T antigen): 4.71 µM (active)
- AC50 [7]: 12.7 µM (active)
- EC50 (Protein RecA): 1.1 µM (active)

Structure (SMILES): CO[C@@H]1CN(C)C(=O)c2ccc(NC(=O)Nc3ccccc3F)cc2OC[C@@H](C)N(CC2CC2)C[C@H]1C
- AC50 [8]: 6.67 µM (active)
- AC50 [9]: > 100 µM (inactive)
- AC50 [10]: 0.799 µM (active)
- AC50 [11]: 0.399 µM (active)
- AC50 [12]: 0.0955 µM (active)
- AC50 [13]: 3.04 µM (active)
- AC50 [14]: 0.961 µM (active)

Structure (SMILES): Clc1ccccc1-c1nc(-c2ccccc2)c(-c2ccccc2)[nH]1
- IC50 (NADPH oxidase 1): > 17 µM (not active)

Structure (SMILES): O=C1c2c(O)cccc2Cc2cccc(O)c21 [ANTHRALIN]
- IC50 (Genome polyprotein): > 49.8 µM (not active)
- IC50 [15]: > 100 µM (inactive)
- IC50 [16]: > 10 µM (inactive)
- IC50 [17]: > 10 µM (inactive)

Structure (SMILES): COc1ccc(OC(=O)N(CC(=O)O)Cc2ccc(OCCc3nc(-c4ccccc4)oc3C)cc2)cc1 [MURAGLITAZAR]
- IC50 [18]: 1.54 µM (active)
- IC50 [19]: 36.2 µM (inactive)

Source: ChEMBL document CHEMBL1201862, “PubChem BioAssay data set” (2004)
